# Measurements published in patent US5110935A, “New compounds which are active against the tissue forms of malaria and method of preparation” (Ire-Celltarg, S.A., priority 1988, dated 1992).
# Where two headings read alike, the source gives them in different places.
# Assays:
# human red cells = assay: Methemoglobin production in human red cells; type: cell-based; details: for Methemoglobin (% of total hemoglobin concentration): 1 hour, 37° C.
# Protocol: Two important toxic effects of PQ were assessed on the two derivatives: the hemolytic effect and the conversion of hemoglobin to methemoglobin.
# A+ blood is washed twice in 0.15M phosphatebuffered saline at pH 7.4 containing 20 mM glucose (GPBS), and then resuspended at a concentration of 50% in the same buffer. To this suspension, an equal volume of compound dissolved in GPBS at different concentrations (test), or of GPBS (control) is added. The final hematocrit of the suspension is 25%. After 60 minutes' incubation at 37° C., the concentration of hemoglobin and methemoglobin is determined on the total suspension, and the concentration of hemoglobin present in the supernatant after centrifugation (extracellular hemoglobin) is determined, by the cyanmethemoglobin and benzidine methods (Fairbanks V.F., 1976, in "Fundamentals of Clinical Chemistry, M.W. Tietz Editors, Saunders").
# lysosomal enzymes = assay: Hydrolysis in the presence of lysosomal enzymes; type: in vitro ADME, rat; details: for Relative concentration of compound (% of initial concentration): pH 4.5, 37° C., 0 h; for Relative concentration of primaquine (PQ) from derivative: pH 4.5, 0 h
# Protocol: (§1) The compounds, at a final concentration of 15 μg/ml, are incubated in 50 mM acetate buffer, pH 4.5, at 37° C. in the presence of 5 mM cysteine and a lysosomal enzyme fraction (0.15 mg protein/ml) purified from rat liver.
# (§2) The purified lysosomal fraction is prepared according to the method described by Trouet (1974, Meth. Enzymol., 31, 323-334).
# (§3) At intervals of time, corresponding samples are taken from the incubation. The enzyme reaction is stopped by adding 10 μl of 10M HCl per ml of sample. A volume of 20 μl is withdrawn and analyzed directly by HPLC under the standard conditions.
# (§4) ^a : The compounds are incubated at pH 4.5 in the presence of
# (§5) lysosomal enzymes (0.15 mg protein/ml) and 5 mM cysteine, and then
# (§6) analyzed by spectrophotometry after HPLC. The initial purity of the
# (§7) ^b : The results represent the relative concentration of primaquine
# (§8) (PQ) and derivatives (PQX) in terms of the incubation time, expressed as
# (§9) percentage of the initial concentration (time 0) after extraction.
# [1] = Hydrolysis in the presence of lysosomal enzymes; type: in vitro ADME, rat; details: rat; for metabolised at 1 h: pH 4.5, 1 h; for metabolised at 2 h: pH 4.5, 2 h; for metabolised at 3 h: pH 4.5, 3 h; for metabolised at 6 h: pH 4.5, 6 h; for metabolised at 24 h: pH 4.5, 24 h
# Protocol: as §1, §2, §3, §4, §5, §6, §7, §8, §9
# Plasmodium berghei = assay: Causal prophylactic activity on OF1 mice infected with Plasmodium berghei; type: in vivo, P. berghei (ANKA), in Swiss OF1 mice; details: for ED50 / ED100 / minimal effective dose: Plasmodium berghei, 3 h; for ED50 / ED100 / minimal effective dose / CPD50, fold lower than for PQ: iv; for ED50: read-out: CPD50, causal prophylactic dose curing 50% of the infected and treated animals; for ED100: read-out: ED100, totally curative dose; for minimal effective dose: read-out: Minimal effective dose (MED); for PQ index: ratio CPD50 of PQ/CPD50 of the compound
# Protocol: Primaquine and its derivatives are tested in the model of malaria in rodents employing the infection of mice with Plasmodium berghei, the sporozoites originating from infected Anopheles stephensi mosquitoes. This model, developed by Most H., Herman R. & Schoenfeld C. (1967), Am. J. Trop. med. Hyg. 16, 572-575, enables the casual prophylatic (tissue schizonticidal) activity of new therapeutic compounds to be determined.
# The procedure used is that derived from Most H. & Montuori W.A. (1975), Am. J. Trop. Med. Hyg. 24, 179-189. It involves the system P. berghei (ANKA)/Anopheles stephensi/Swiss OF1 mice. The ANKA strain of P. b. berghei is maintained cyclically on Anopheles stephensi. The Swiss OF1 strain mouse is especially sensitive to P. b. berghei, which produces an invariably fatal infection.
# The legs, wings and abdomen are removed from female mosquitoes (80 to 100 individuals per preparation) and the latter are then homogenized at 4° C. in MEM medium (GIBCO) containing 10% of fetal calf serum using a glass Potter. The sporozoite suspension is then purified from the mosquito debris by two successive centrifugations (2 min at 50 g and 5 min at 200 g) and the collected supernatant is stored at 4° C. After counting in a Petroff-Hausser chamber, the number of parasites is adjusted by dilution with the same cold medium to a density of 2×10^5 sporozoites/ml.
# The causal prophylactic activity of the compounds, that is to say the dose enabling 50% of the infected animals to be cured (CPD50) is obtained by analysis of the logits of the response (expressed as a % LTS) as a function of the dose (mg PQ/kg).
# A volume of 0.5 ml of the suspension containing 10^5 sporozoites is injected i.v. into female Swiss OF1 mice weighing 20 to 25 g, used for the therapeutic tests. 1.2. Chemotherapeutic treatments
# Groups of 20 to 25 mice, infected as described above, are treated with a single intravenous injection of primaquine diphosphate (PQ) or of its two derivatives in hydrochloride form, three hours after inoculation of the sporozoites. The volume injected is adjusted according to the weight of the mouse, on the basis of 0.25 ml for a weight of 25 g. The compounds are diluted in phosphatebuffered saline (PBS), pH 7.0, and the pH is adjusted to 7.0. Infected but untreated mice (5 per group), receive the buffer alone and serve to monitor the infectivity of the sporozoites.
# The experimental mice are kept for a period of 50 days. The development of the parasitemia is followed by daily examination of blood smears stained for 60 min with 5% Giemsa in Sorensen buffer at pH 7.2, from day 5 up to day 15. The number of infected animals can thus be determined.
# (§10) The animals infected using P. berchei sporozoites are treated three hours later with a single i.v. injection of the compounds. This test enables the casual prophylactic activity of the compounds, that is the dose enabling 50% of the infected animals to be cured (CPD50), to be defined. The dose is always expressed as mg of PQ diphosphate per kg.
# as §10, with “berghei” for “berchei”
# female Swiss OF1 mice = assay: Acute toxicity in mice after a single i.v. administration; type: in vivo; details: for Maximum tolerated dose (MTD) / LD50: single i.v., mg PQ diphosphate equivalent/kg; for Maximum tolerated dose (MTD): weight loss not exceeding 5% during 5 days; for Fold less toxic than PQ: mice, i.v.
# Protocol: (§11) The acute toxicity in terms of a single administered dose is determined on female Swiss OF1 mice weighing 22 to 25 g. A series of dilutions of each compound is injected intravenously into groups of 10 mice (0.1 ml per 10 g of weight).
# (§12) The lethal dose for 50% of mice (LD50) is determined by linear regression of the logits of the percentage of surviving animals as a function of the logarithm of the dose injected (in mg PQ diphosphate equivalent/kg) (Logit Weighted Transformation, Berkson J., 1953; J. Am. Stat. Assoc. 48, 565-599).
# (§13) ^a : The products are administered i.v. to groups of 10 female Swiss
# (§14) ^b : Maximum tolerated dose (MTD), defined as the highest dose
# (§15) The acute toxicity in terms of a single administered dose is determined under the same conditions and according the protocol of Example 3.
# [2] = as above; type: in vivo; details: mouse, in vivo, iv, single i.v., mg PQ diphosphate equivalent/kg; for MTD: weight loss not exceeding 5% during 5 days, read-out: Maximum tolerated dose (MTD)
# Protocol: as §11, §12, §13, §14, §15
# human erythrocytes = details: for Concentration combined with erythrocytes (% initial concentration): human red cells 10^9/ml, 100 μg/ml
# Protocol: Fresh human blood (A+) on CPDA is washed twice in RPMI medium containing 20 mM glucose at pH 7.4, and then resuspended in the same medium at 37° C. to obtain a 20% suspension of red cells (2×10^9 erythrocytes/ml). To 1 ml of this suspension, 1 ml of a solution of PQ or derivatives at a concentration of 0.250 mM in the same medium at 37° C. is added.
# After different incubation times at 37° C., 0.5 ml of sample is withdrawn and then transferred to an Eppendorf tube containing 0.4 ml of silicone oil (Merck, density 1.06 g/ml).
# After centrifugation for 30 seconds at 12,000 g, the supernatant and the silicone oil are removed, while the cells in the pellet are lyzed by adding 0.5 ml of water. The quinoline compound present in combination with the cell lysate is then extracted by precipitation of the cell proteins with acetonitrile (0.5 ml) and thereafter analyzed by HPLC under the standard conditions.
# The intracellular concentration of quinoline derivative is obtained by subtracting the concentration of compound present in the extracellular medium from the total concentration in the cell lysate. The contaminating extracellular volume is measured using tritiated inulin.
# [3] = liver lysosomal enzymes, pH 4.5, 37° C., read-out: Relative concentration of compound (% of initial concentration)
# [4] = single i.v. three hours after sporozoites, mg PQ diphosphate equivalent/kg
# [5] = liver lysosomal enzyme fraction, read-out: Relative concentration of primaquine (PQ) from derivative
Compound,Methemoglobin (% of total hemoglobin concentration) (human red cells; 1 mM),Methemoglobin (% of total hemoglobin concentration) (human red cells; 2 mM),Methemoglobin (% of total hemoglobin concentration) (human red cells; 5 mM),Methemoglobin (% of total hemoglobin concentration) (human red cells; 10 mM),Relative concentration of compound (% of initial concentration) (lysosomal enzymes),"remaining at 1 h [1, 3]","remaining at 2 h [1, 3]","remaining at 3 h [1, 3]","remaining at 6 h [1, 3]","remaining at 24 h [1, 3]",PQ index (Plasmodium berghei),"CPD50, causal prophylactic dose curing 50% of the infected and treated animals (Plasmodium berghei; [4])","ED100, totally curative dose (Plasmodium berghei; [4])",Maximum tolerated dose (MTD) (female Swiss OF1 mice),MTD [2],Accumulation in erythrocytes (human erythrocytes; not told),Relative concentration of primaquine (PQ) from derivative (lysosomal enzymes),"metabolised at 1 h [1, 5]","metabolised at 2 h [1, 5]","metabolised at 3 h [1, 5]",other results
"COc1cc(NC(C)CCCN)c2ncccc2c1 (stereo not drawn) [Primaquine, 6-methoxy-8-(4-amino-1-methylbutylamino)quinoline, reference compound]",1.2 (0.5) %,3.4 (1.8) %,5.8 (0.2) %,11.5 (4.2) %,100%,94%,96%,84%,87%,68%,1.00,18.8 (1.3) mg/kg,TOX,24 (2.1) mg/kg,24 mg/kg,taken up rapidly by erythrocytes,,,,,"Methemoglobin (% of total hemoglobin concentration) (human red cells; 10 mM, listed as PQ): 11.5%; ED50 (Plasmodium berghei): 18.8 mg/kg; ED100 (Plasmodium berghei): ~54 mg/kg; minimal effective dose (Plasmodium berghei): 6.5 mg/kg; Time for which concentration in red cells is maintained (human erythrocytes): at least one hour; Concentration combined with erythrocytes (% initial concentration) (human erythrocytes; 5 min): 17.7 (1.2) %; Concentration combined with erythrocytes (% initial concentration) (human erythrocytes; 5 min, listed as PQ): 18%; Concentration combined with erythrocytes (% initial concentration) (human erythrocytes; 10 min): 18.0 (3.4) %; Concentration combined with erythrocytes (% initial concentration) (human erythrocytes; 60 min): 18.8 (0.2) %"
"COc1cc(NC(C)CCCNC(=O)CC[C@H](N)C(=O)O)c2ncccc2c1 (stereo partly drawn) [gGLU-PQ, N-(γ-L-glutamyl)primaquine]",1.4 (0.0) %,,5.3 (0.0) %,,100%,104%,95%,98%,101%,105%,2.15,8.7 (0.7) mg/kg,24.2 (9.8) mg/kg,117 (13) mg/kg,117 mg/kg,not accumulated in erythrocytes,0%,0%,0%,0%,"metabolised at 6 h [1, 5]: 0%; metabolised at 24 h [1, 5]: 0%; ED50 (Plasmodium berghei; [4]): 8.7 mg/kg; ED100 (Plasmodium berghei; [4]): 24 mg/kg; minimal effective dose (Plasmodium berghei; [4]): 3.2 mg/kg; CPD50, fold lower than for PQ (Plasmodium berghei): 22 -fold; Activity compared with PQ (Plasmodium berghei; mouse, in vivo): at least twice as active as PQ; Fold less toxic than PQ (female Swiss OF1 mice): at least 5 -fold; LD50 (female Swiss OF1 mice): 169 (9) mg/kg; LD50 [2]: 169 mg/kg"
"COc1cc(NC(C)CCCNC(=O)[C@@H]2CCC(=O)N2)c2ncccc2c1 (stereo partly drawn) [pGLU-PQ, N-(α-L-pyroglutamyl)primaquine]",0.9 (0.1) %,2.2 (0.9) %,3.9 (0.0) %,6.0 (0.2) %,99%,94%,97%,97%,96%,76%,1.87,10.0 (0.7) mg/kg,21.8 (5.7) mg/kg,126 (13) mg/kg,126 mg/kg,,1%,0%,0%,0%,"Oxidation of hemoglobin, times less than PQ (human red cells; same concentration as PQ (10 mM)): 1.5 times less; Onset of gradual decrease in relative concentration (lysosomal enzymes): > 6 h; metabolised at 6 h [1, 5]: 0%; metabolised at 24 h [1, 5]: 0%; metabolised at 48 h ([1]; liver lysosomal enzyme fraction, pH 4.5, 48 h, read-out: Relative concentration of primaquine (PQ) from derivative): 0%; remaining at 48 h ([1]; liver lysosomal enzymes, pH 4.5, 37° C., 48 h, read-out: Relative concentration of compound (% of initial concentration)): 47%; ED50 (Plasmodium berghei; [4]): 10 mg/kg; ED100 (Plasmodium berghei; [4]): 22 mg/kg; minimal effective dose (Plasmodium berghei; [4]): 4.6 mg/kg; CPD50, fold lower than for PQ (Plasmodium berghei): 1.9 -fold; Activity relative to PQ, fold as active (Plasmodium berghei; model of malaria in mice): at least 1.9 -fold; Fold less toxic than PQ (female Swiss OF1 mice): at least 5 -fold; LD50 (female Swiss OF1 mice): 159 (6) mg/kg; LD50 [2]: 159 mg/kg; Time to maximum level in erythrocytes (human erythrocytes; not told): 60 min"
